The source of these data is ChEMBL document CHEMBL5209897, “Affinity Phenotypic Cellular Literature for EUbOPEN Chemogenomics Library wave 3” (2023).

The target in assay [1] is Serine/threonine-protein kinase PLK1 (Homo sapiens, UniProt P53350). Description: Affinity Phenotypic Cellular interaction (Immunoblot activity assay (using LAP-Mps1 WT in U2OS cells)) EUB0000608a PLK1. Format: cell-based. Details: mode of action Inhibitor, recommended concentration 1 uM.
The target of assay [2] is T1, Phosphatidylinositol 4,5-bisphosphate 3-kinase catalytic subunit beta isoform (Homo sapiens, UniProt P42338). The assay is described as follows: Affinity Phenotypic Cellular interaction (MesoScale Discovery assay (AKT phoshorylation in MCF 7 cells)) EUB0000685a PIK3CB. Format: cell-based. More on the design: mode of action Inhibitor, recommended concentration 100 nM.

The target in assay [3] is T2, Phosphatidylinositol 4,5-bisphosphate 3-kinase catalytic subunit gamma isoform (Homo sapiens, UniProt P48736). Description: Affinity Phenotypic Cellular interaction (MesoScale Discovery assay (AKT phoshorylation in MCF 7 cells)) EUB0000685a PIK3CG. Format: cell-based. More on the design: mode of action Inhibitor, recommended concentration 100 nM.
Target sequence in this assay (P48736 whole entry, canonical isoform): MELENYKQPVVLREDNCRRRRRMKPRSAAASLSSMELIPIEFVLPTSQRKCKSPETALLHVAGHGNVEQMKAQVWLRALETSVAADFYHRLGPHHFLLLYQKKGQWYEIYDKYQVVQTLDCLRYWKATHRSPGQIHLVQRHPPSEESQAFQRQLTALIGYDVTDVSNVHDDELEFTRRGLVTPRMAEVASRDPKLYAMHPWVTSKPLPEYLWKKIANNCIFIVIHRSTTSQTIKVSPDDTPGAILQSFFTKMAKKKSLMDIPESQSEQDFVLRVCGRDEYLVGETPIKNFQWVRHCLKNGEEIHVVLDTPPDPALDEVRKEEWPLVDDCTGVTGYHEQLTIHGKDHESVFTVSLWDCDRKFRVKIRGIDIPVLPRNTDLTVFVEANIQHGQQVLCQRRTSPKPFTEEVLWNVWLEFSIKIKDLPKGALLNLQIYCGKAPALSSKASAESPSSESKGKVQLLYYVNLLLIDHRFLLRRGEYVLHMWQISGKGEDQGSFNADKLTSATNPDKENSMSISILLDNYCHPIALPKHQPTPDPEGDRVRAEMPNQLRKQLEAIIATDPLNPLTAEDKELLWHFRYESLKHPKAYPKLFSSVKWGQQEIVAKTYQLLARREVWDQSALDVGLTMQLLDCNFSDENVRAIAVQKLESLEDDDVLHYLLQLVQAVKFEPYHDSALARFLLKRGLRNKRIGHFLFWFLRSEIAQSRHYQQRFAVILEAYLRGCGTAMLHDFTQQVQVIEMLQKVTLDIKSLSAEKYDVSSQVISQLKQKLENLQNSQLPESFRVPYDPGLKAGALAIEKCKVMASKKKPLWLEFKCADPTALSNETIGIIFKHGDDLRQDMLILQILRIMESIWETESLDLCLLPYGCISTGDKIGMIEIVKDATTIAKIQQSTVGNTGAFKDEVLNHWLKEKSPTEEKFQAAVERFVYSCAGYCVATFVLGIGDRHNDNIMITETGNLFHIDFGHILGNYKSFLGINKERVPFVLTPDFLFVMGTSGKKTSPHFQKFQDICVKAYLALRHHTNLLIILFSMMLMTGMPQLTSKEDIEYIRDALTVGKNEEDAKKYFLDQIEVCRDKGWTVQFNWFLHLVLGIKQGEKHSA
For assay [4], the target named is Phosphatidylinositol 4,5-bisphosphate 3-kinase catalytic subunit alpha isoform (Homo sapiens) (UniProt P42336). The conditions noted are these: Affinity Phenotypic Cellular Source Knowledge https://doi.org/10.1093/jnci/djj133.
Assay [5] has as its target T1, Phosphatidylinositol 4,5-bisphosphate 3-kinase catalytic subunit beta isoform. The conditions noted are these: Affinity Phenotypic Cellular Source Knowledge https://doi.org/10.1093/jnci/djj133.
The target of assay [6] is Phosphatidylinositol 4,5-bisphosphate 3-kinase catalytic subunit delta isoform (Homo sapiens) (UniProt O00329). Conditions: Affinity Phenotypic Cellular Source Knowledge https://doi.org/10.1093/jnci/djj133.
Sequence of Phosphatidylinositol 4,5-bisphosphate 3-kinase catalytic subunit delta isoform (Homo sapiens) (O00329 whole entry, canonical isoform): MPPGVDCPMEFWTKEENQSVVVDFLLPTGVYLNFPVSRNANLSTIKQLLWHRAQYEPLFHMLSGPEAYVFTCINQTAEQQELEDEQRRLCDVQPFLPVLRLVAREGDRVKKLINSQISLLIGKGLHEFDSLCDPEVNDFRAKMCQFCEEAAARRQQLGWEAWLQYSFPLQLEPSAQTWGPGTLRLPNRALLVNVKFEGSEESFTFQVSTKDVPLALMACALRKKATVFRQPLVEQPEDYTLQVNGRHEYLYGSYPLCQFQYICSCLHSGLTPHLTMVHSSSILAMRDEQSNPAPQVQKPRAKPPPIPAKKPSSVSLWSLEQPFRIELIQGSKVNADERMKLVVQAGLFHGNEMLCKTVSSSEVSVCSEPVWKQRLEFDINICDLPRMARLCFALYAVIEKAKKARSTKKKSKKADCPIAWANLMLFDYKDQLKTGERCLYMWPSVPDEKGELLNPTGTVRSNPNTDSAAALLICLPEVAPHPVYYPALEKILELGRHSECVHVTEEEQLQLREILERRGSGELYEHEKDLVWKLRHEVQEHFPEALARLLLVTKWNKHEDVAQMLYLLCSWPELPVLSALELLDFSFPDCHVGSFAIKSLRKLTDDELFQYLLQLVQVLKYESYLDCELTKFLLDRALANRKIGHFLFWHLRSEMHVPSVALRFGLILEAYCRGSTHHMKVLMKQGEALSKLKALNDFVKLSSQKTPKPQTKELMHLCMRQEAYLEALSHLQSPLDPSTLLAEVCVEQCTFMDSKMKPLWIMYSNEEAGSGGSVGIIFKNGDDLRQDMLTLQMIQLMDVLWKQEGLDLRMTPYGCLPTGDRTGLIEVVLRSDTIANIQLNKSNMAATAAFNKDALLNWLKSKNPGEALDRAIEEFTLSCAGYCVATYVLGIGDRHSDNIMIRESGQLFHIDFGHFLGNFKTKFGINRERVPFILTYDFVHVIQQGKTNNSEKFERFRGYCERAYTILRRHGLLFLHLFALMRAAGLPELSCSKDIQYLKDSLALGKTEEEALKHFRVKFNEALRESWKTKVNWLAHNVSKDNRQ
Assay [7] concerns the target T2, Phosphatidylinositol 4,5-bisphosphate 3-kinase catalytic subunit gamma isoform. The conditions noted are these: Affinity Phenotypic Cellular Source Knowledge https://doi.org/10.1093/jnci/djj133.
Target sequence in this assay (P48736 whole entry, looked up, canonical isoform): as the sequence (P48736 whole entry, canonical isoform) above
Assay [8] concerns the target Phosphatidylinositol 3-kinase catalytic subunit type 3 (Homo sapiens, UniProt Q8NEB9). Description: Affinity Phenotypic Cellular interaction (Inhibition of PtdIns(3)P levels (at endosomes probed by suppression of endosomal localization of GFP–2×FYVEHrs; U2OS cells)) EUB0000631a PIK3C3. Details: mode of action Inhibitor, recommended concentration 1 uM. Format: functional.

The target in assay [9] is Serine/threonine-protein kinase 4 (Homo sapiens, UniProt Q13043). Description: Affinity Phenotypic Cellular interaction (Immunoblotting (phosphorylation of endogenous MOB1; LATS1/2; and YAP in human liver carcinoma (HepG2) cells)) EUB0000178b STK4. More on the design: mode of action Inhibitor, recommended concentration 100 nM.
Sequence of Serine/threonine-protein kinase 4 (Q13043 whole entry): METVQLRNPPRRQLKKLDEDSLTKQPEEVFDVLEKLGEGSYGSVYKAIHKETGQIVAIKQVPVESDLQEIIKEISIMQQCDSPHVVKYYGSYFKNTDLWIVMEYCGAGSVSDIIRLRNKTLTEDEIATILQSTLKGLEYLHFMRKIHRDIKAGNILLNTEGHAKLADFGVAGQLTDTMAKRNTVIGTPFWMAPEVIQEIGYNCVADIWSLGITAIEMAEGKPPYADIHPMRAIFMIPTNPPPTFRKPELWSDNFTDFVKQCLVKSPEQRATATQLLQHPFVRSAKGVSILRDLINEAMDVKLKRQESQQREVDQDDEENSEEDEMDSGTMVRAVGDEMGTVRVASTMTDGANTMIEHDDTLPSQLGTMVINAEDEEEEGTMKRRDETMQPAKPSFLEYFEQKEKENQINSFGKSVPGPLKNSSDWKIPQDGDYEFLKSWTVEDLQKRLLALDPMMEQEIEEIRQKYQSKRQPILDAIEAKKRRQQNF
Assay [10] concerns the target Serine/threonine-protein kinase 3 (Homo sapiens, UniProt Q13188).
The target of assay [11] is Bromodomain adjacent to zinc finger domain protein 2A (Homo sapiens, UniProt Q9UIF9). Description: Affinity Phenotypic Cellular interaction (FRAP assay (displacement of BAZ2A/B from chromatin in SAHA-treated human U2OS cells, transfected with GFP-BAZ2A fusion construct)) EUB0000267b BAZ2A. More on the design: mode of action Negative control for GSK2801, recommended concentration 1 uM.

In assay [12] the target is CREB-binding protein (Homo sapiens, UniProt Q92793). The assay is described as follows: Affinity Phenotypic Cellular interaction (Inhibition of H3K27Ac (DU-145 cells)) EUB0000326a CREBBP.
Assay [13] addresses Histone acetyltransferase p300 (Homo sapiens, UniProt Q09472). The assay is described as follows: Affinity Phenotypic Cellular interaction (Inhibition of H3K27Ac (DU-145 cells)) EUB0000326a EP300.
Assay [14] deals with Mitogen-activated protein kinase kinase kinase kinase 2 (Homo sapiens, UniProt Q12851). Description: Affinity Phenotypic Cellular interaction (Western Blot (inhibition in IL-1-induced phosphorylation of MAPK14)) EUB0000238b MAP4K2. More on the design: mode of action Inhibitor, recommended concentration 1 uM.
Sequence of Mitogen-activated protein kinase kinase kinase kinase 2 (Q12851 whole entry): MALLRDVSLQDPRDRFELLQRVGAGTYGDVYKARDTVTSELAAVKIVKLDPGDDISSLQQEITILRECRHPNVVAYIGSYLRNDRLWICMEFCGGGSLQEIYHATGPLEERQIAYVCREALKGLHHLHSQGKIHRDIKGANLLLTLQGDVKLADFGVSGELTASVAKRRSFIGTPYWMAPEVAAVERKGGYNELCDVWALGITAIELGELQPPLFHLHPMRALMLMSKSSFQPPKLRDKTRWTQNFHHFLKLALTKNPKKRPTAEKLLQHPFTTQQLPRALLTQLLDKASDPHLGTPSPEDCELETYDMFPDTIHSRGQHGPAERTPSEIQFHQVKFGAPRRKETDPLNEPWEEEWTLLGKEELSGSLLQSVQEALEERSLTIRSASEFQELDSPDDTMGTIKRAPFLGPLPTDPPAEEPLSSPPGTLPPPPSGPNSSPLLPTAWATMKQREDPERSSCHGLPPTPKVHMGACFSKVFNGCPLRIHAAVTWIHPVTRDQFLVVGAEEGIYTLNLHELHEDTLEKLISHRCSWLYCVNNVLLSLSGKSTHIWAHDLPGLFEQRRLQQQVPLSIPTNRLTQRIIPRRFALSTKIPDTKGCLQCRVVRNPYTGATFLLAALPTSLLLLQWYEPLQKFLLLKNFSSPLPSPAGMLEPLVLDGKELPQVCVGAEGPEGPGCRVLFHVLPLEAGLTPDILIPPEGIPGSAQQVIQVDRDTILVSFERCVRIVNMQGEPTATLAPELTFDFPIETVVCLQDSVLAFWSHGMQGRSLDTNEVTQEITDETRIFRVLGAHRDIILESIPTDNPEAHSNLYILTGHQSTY
For assay [15], the target named is Hepatocyte growth factor receptor (Homo sapiens) (UniProt P08581). Description: Affinity Phenotypic Cellular interaction (Cell proliferation assay (in Hs746T cells)) EUB0000293b MET. It counts as functional, cell-based. Details: recommended concentration 1 uM. The conditions noted are these: Affinity Phenotypic Cellular Source Knowledge https://www.sgc-ffm.uni-frankfurt.de/#!specificprobeoverview/BAY-474.

Assay [16] has as its target Dual specificity protein kinase CLK1 (Homo sapiens, UniProt P49759). Description: Affinity Phenotypic Cellular interaction (Changed alternative splicing pattern determined by mRNAseq) EUB0000321b CLK1. Format: functional. More on the design: mode of action Inhibitor, recommended concentration 100 nM.
Assay [17] concerns the target Dual specificity protein kinase CLK3 (Homo sapiens, UniProt P49761). The assay is described as follows: Affinity Phenotypic Cellular interaction (Changed alternative splicing pattern determined by mRNAseq) EUB0000321b CLK3. More on the design: mode of action Inhibitor, recommended concentration 100 nM. It counts as functional.
For assay [18], the target named is Dual specificity protein kinase CLK4 (Homo sapiens, UniProt Q9HAZ1). The assay is described as follows: Affinity Phenotypic Cellular interaction (Changed alternative splicing pattern determined by mRNAseq) EUB0000321b CLK4. It counts as functional. Details: mode of action Inhibitor, recommended concentration 100 nM.
Assay [19] has as its target Lysine-specific demethylase 6A (Homo sapiens, UniProt O15550). Description: Affinity Phenotypic Cellular interaction (Inhibition of TNF release (in LPS stimulated human macrophages derived from PBMC)) EUB0000217b KDM6A/UTX. It counts as functional. Details: mode of action Pro-drug of GSK-J1, recommended concentration 100 nM.
In assay [20] the target is Aurora kinase C (Homo sapiens, UniProt Q9UQB9). Description: Affinity Phenotypic Cellular interaction (ELISA (histone H3 serine phosphorylation in A549 cells)) EUB0000674a AURKC. Format: cell-based. Details: mode of action Inhibitor, recommended concentration 1 uM.
The target of assay [21] is Aurora kinase B (Homo sapiens, UniProt Q96GD4). The assay is described as follows: Affinity Phenotypic Cellular interaction (ELISA (histone H3 serine phosphorylation in A549 cells)) EUB0000674a AURKB. It counts as cell-based. More on the design: mode of action Inhibitor, recommended concentration 1 uM.
For assay [22], the target named is T2, Phosphatidylinositol 4,5-bisphosphate 3-kinase catalytic subunit gamma isoform. Description: Affinity Phenotypic Cellular interaction (Inhibition of pAKT-S473 in T47D breast cancer lines) EUB0000691a PIK3CG. More on the design: mode of action Inhibitor, recommended concentration 100 nM.
Target sequence in this assay (P48736 whole entry, canonical isoform): as the sequence (P48736 whole entry, canonical isoform) above

Some results are limits rather than exact numbers.

Sequence of Lysine-specific demethylase 6A (O15550 whole entry): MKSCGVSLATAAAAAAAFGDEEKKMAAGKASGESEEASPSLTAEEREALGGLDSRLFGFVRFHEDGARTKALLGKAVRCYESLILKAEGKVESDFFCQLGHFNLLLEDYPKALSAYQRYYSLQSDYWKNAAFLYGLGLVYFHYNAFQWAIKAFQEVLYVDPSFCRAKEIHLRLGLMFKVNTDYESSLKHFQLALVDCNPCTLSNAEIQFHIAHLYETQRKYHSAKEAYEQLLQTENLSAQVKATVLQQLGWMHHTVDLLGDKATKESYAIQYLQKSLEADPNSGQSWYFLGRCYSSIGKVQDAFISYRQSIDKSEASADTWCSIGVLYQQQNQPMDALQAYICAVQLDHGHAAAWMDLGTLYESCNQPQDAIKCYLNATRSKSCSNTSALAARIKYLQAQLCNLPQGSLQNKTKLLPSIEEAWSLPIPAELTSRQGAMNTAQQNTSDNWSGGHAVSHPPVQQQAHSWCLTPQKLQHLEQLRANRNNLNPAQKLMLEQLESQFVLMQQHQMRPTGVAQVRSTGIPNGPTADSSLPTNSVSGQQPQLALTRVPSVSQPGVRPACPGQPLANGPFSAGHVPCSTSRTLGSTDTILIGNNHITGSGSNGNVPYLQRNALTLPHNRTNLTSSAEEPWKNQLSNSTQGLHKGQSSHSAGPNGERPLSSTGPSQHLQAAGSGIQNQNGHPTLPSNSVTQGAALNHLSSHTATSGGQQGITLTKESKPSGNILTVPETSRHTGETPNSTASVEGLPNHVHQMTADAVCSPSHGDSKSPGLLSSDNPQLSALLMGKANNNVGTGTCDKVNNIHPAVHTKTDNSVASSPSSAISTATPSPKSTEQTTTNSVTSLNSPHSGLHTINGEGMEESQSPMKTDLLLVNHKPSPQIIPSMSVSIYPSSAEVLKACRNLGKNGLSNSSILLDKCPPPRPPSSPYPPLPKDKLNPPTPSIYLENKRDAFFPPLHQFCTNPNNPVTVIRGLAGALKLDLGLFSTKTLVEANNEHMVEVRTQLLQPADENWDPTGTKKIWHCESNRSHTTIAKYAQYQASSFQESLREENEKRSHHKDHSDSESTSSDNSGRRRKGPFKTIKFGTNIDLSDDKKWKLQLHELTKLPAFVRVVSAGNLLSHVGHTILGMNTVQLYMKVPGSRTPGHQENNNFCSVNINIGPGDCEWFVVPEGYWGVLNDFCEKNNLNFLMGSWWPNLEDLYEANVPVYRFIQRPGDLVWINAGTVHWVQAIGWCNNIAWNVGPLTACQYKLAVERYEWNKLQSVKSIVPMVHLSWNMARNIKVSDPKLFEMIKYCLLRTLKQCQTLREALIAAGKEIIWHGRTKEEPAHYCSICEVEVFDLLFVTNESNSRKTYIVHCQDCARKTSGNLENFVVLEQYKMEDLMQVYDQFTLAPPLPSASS

`CCOc1cc(N2CCC(O)CC2)ccc1Nc1ncc2c(n1)N(C1CCCC1)CCC(=O)N2C` displayed an IC50 in assay [1] of 160 nM. This lies in the sub-micromolar range.
`Cc1nc(-c2cn3c(n2)-c2ccc(-c4cnn(C(C)(C)C(N)=O)c4)cc2OCC3)n(C(C)C)n1` [TASELISIB]: the IC50 in assay [2] and in assay [3] was 4 nM in each case.
On to `FC(F)c1nc2ccccc2n1-c1nc(N2CCOCC2)nc(N2CCOCC2)n1`, for which the GI50 in assay [4], in [5], in [6] and in [7] was 28 nM in each case.
In the case of `CC(C)(O)CNc1ncc(-c2ccnc(Nc3ccnc(Cl)c3)n2)c(CC2CC2)n1`, in [8], the IC50 was < 100 nM.
With `CN1C(=O)c2sccc2N(C)c2nc(Nc3ccc(S(N)(=O)=O)cc3)ncc21`, the EC50 in [9] and in assay [10] was > 100 nM in each case.
On to `CCCOc1ccn2c(C(C)=O)cc(-c3cccc(OC)c3)c2c1`, for which the IC50 in assay [11] is > 100000 nM.
On to `CNC(=O)Nc1ccc2c(c1)[C@@]1(CC2)OC(=O)N(CC(=O)N(Cc2ccc(F)cc2)[C@@H](C)C(F)(F)F)C1=O` [A-486], for which the IC50 in assay [12] and in assay [13] was > 10000 nM throughout.
Turning to `CNc1cc(Oc2cc(C(=O)Nc3cc(N4CCN(C)CC4)cc(C(F)(F)F)c3)ccc2C)ncn1`, the EC50 in assay [14] was determined as 500 nM.
Consider `CC1=C(C#N)C(c2ccc3[nH]nc(C)c3c2)C(C#N)=C(C)N1`, for which it took 56 nM to reach the 90% level in assay [15] (IC90).
Regarding `CN1CCN(C(=O)C(C)(C)c2ccc(C(=O)Nc3cn4cc(-c5ccncc5)ccc4n3)cc2)CC1` [T3-CLK], the EC50 in assay [16], in [17] and in [18] was < 500 nM throughout.
In assay [19], `CCOC(=O)CCNc1cc(N2CCc3ccccc3CC2)nc(-c2ccccn2)n1` registered an IC50 of 9000 nM.
`CCn1cc(-c2ccnc3[nH]c(-c4cccc(CN(C)C)c4)cc23)c(-c2ccc(NC(=O)N(C)C)cc2)n1` [GSK-1070916]: the EC50 in assay [20] and in assay [21] was 46 nM each time.
With `COc1ncc(-c2ccc3nccc(-c4ccnnc4)c3c2)cc1NS(=O)(=O)c1ccc(F)cc1F` [OMIPALISIB], half-maximal inhibition in [22] (IC50) required 0.41 nM.
